From patent US20240226125A1, “USE OF SOTAGLIFLOZIN FOR THE TREATMENT OF PATIENTS WITH TYPE 1 DIABETES MELLITUS” (priority 2019, published 2024)

System: adult patients with Type 1 Diabetes Mellitus who have inadequate glycemic control with insulin therapy
Assay: inTandem 1 and inTandem 2 pooled clinical studies, safety events / main risks
Format: in vivo, human
Conditions: for Discontinuation of drug due to diarrhea / Patients with Any TEAE, (%) / Patients with DKA (positively adjudicated), (%) / Patients with Diarrhea, (%) / Patients with Genital mycotic infection, (%) / Patients with Severe hypoglycemia (positively adjudicated), (%): through 52 Weeks
[1] = 400 mg, Baseline BMI <27 kg/m^2, Week 52
[2] = 400 mg, Baseline BMI ≥27 kg/m^2, Week 52

Q: How did the “Positively Adjudicated Severe Hypoglycemia, Events [n (%) n]: patients n” value (400 mg (N = 313), Baseline BMI ≥27 kg/m^2, Week 52) turn out when `CCOc1ccc(Cc2cc([C@@H]3O[C@H](SC)[C@@H](O)[C@H](O)[C@H]3O)ccc2Cl)cc1` [sotagliflozin, (2S,3R,4R,5S,6R)-2-(4-chloro-3-(4-ethoxybenzyl)phenyl)-6-(methylthio)tetrahydro-2H-pyran-3,4,5-triol] was run?
A: Its value is 12.

Q: What about the “Diarrhea, EAIR per 1,000 Subject-years (95% CL)” value [1] of the same compound?
A: The value was 102.78 (56.56, 148.99) per 1,000 Subject-years.

Q: And the “Diarrhea, Events [n (%) n]: events n” value [1]?
A: The value was 28.

Q: What about the “Diarrhea, Events [n (%) n]: patients (%)” value [1] of the same compound?
A: The value was 9.0%.

Q: What about the “Diarrhea, Events [n (%) n]: patients n” value [1] of the same compound?
A: The value was 19.

Q: What about the “Diarrhea, Events per Subject per Year” value [1] of the same compound?
A: Its value is 0.151 Events per Subject per Year.

Q: What about the “Diarrhea, Relative Risk of EAIR (95% CL) Versus Placebo” value [1] of the same compound?
A: The value was 2.98 (1.28, 7.60).

Q: And the “Documented hypoglycemia <55 mg/dL, Events per Subject per Year” value [1]?
A: Its value is 15.74 Events per Subject per Year.

Q: What about the “Genital Mycotic Infections (female), EAIR per 1,000 Subject-years (95% CL)” value [1] of the same compound?
A: Its value is 196.79 (108.30, 285.28) per 1,000 Subject-years.

Q: And the “Genital Mycotic Infections (female), Events [n (%) n]: events n” value [1]?
A: Its value is 31.

Q: And the “Genital Mycotic Infections (female), Events [n (%) n]: patients (%)” value [1]?
A: Its value is 16.8%.

Q: And the “Genital Mycotic Infections (female), Events per Subject per Year” value [1]?
A: The value was 0.321 Events per Subject per Year.

Q: And the “Genital Mycotic Infections (female), Relative Risk of EAIR (95% CL) Versus Placebo” value [1]?
A: The value was 6.46 (2.09, 27.41).

Q: And the “Genital Mycotic Infections (male), EAIR per 1,000 Subject-years (95% CL)” value [1]?
A: Its value is 101.91 (35.33, 168.49) per 1,000 Subject-years.

Q: And the “Genital Mycotic Infections (male), Events [n (%) n]: events n” value [1]?
A: Its value is 10.

Q: And the “Genital Mycotic Infections (male), Events [n (%) n]: patients (%)” value [1]?
A: Its value is 9.1%.

Q: And the “Genital Mycotic Infections (male), Events per Subject per Year” value [1]?
A: The value was 0.113 Events per Subject per Year.

Q: And the “Genital Mycotic Infections (male), Relative Risk of EAIR (95% CL) Versus Placebo” value [1]?
A: Its value is 5.31 (1.26, 36.06).

Q: What about the “Positively Adjudicated Diabetic Ketoacidosis, EAIR per 1,000 Subject-years (95% CL)” value [1] of the same compound?
A: Its value is 48.68 (16.88, 80.49) per 1,000 Subject-years.

Q: What about the “Positively Adjudicated Diabetic Ketoacidosis, Events [n (%) n]: events n” value [1] of the same compound?
A: Its value is 9.

Q: What about the “Positively Adjudicated Diabetic Ketoacidosis, Events [n (%) n]: patients (%)” value [1] of the same compound?
A: Its value is 4.2%.

Q: And the “Positively Adjudicated Diabetic Ketoacidosis, Events per Subject per Year” value [1]?
A: The value was 0.049 Events per Subject per Year.

Q: What about the “Positively Adjudicated Severe Hypoglycemia, EAIR per 1,000 Subject-years (95% CL)” value [1] of the same compound?
A: The value was 59.50 (24.34, 94.67) per 1,000 Subject-years.

Q: What about the “Positively Adjudicated Severe Hypoglycemia, Events [n (%) n]: events n” value [1] of the same compound?
A: Its value is 16.

Q: What about the “Positively Adjudicated Severe Hypoglycemia, Events [n (%) n]: patients (%)” value [1] of the same compound?
A: The value was 5.2%.

Q: What about the “Positively Adjudicated Severe Hypoglycemia, Events per Subject per Year” value [1] of the same compound?
A: Its value is 0.087 Events per Subject per Year.

Q: What about the “Positively Adjudicated Severe Hypoglycemia, Relative Risk of EAIR (95% CL) Versus Placebo” value [1] of the same compound?
A: Its value is 0.71 (0.32, 1.51).

Q: And the “Diarrhea, EAIR per 1,000 Subject-years (95% CL)” value [2]?
A: The value was 92.38 (57.53, 127.23) per 1,000 Subject-years.

Q: What about the “Diarrhea, Events [n (%) n]: events n” value [2] of the same compound?
A: Its value is 37.

Q: And the “Diarrhea, Events [n (%) n]: patients (%)” value [2]?
A: The value was 8.6%.

Q: What about the “Diarrhea, Events [n (%) n]: patients n” value [2] of the same compound?
A: The value was 27.

Q: What about the “Diarrhea, Events per Subject per Year” value [2] of the same compound?
A: Its value is 0.127 Events per Subject per Year.

Q: And the “Diarrhea, Relative Risk of EAIR (95% CL) Versus Placebo” value [2]?
A: The value was 1.25 (0.70, 2.27).

Q: And the “Documented hypoglycemia <55 mg/dL, Events per Subject per Year” value [2]?
A: The value was 14.45 Events per Subject per Year.

Q: And the “Genital Mycotic Infections (female), EAIR per 1,000 Subject-years (95% CL)” value [2]?
A: The value was 192.26 (121.05, 263.48) per 1,000 Subject-years.

Q: What about the “Genital Mycotic Infections (female), Events [n (%) n]: events n” value [2] of the same compound?
A: Its value is 48.

Q: And the “Genital Mycotic Infections (female), Events [n (%) n]: patients (%)” value [2]?
A: The value was 17.6%.

Q: What about the “Genital Mycotic Infections (female), Events per Subject per Year” value [2] of the same compound?
A: The value was 0.330 Events per Subject per Year.

Q: And the “Genital Mycotic Infections (female), Relative Risk of EAIR (95% CL) Versus Placebo” value [2]?
A: Its value is 2.70 (1.30, 6.04).

Q: What about the “Genital Mycotic Infections (male), EAIR per 1,000 Subject-years (95% CL)” value [2] of the same compound?
A: The value was 47.74 (12.37, 83.10) per 1,000 Subject-years.

Q: And the “Genital Mycotic Infections (male), Events [n (%) n]: events n” value [2]?
A: Its value is 10.

Q: And the “Genital Mycotic Infections (male), Events [n (%) n]: patients (%)” value [2]?
A: Its value is 4.5%.

Q: And the “Genital Mycotic Infections (male), Events per Subject per Year” value [2]?
A: The value was 0.068 Events per Subject per Year.

Q: What about the “Genital Mycotic Infections (male), Relative Risk of EAIR (95% CL) Versus Placebo” value [2] of the same compound?
A: The value was 6.93 (1.07, 157.36).

Q: And the “Positively Adjudicated Diabetic Ketoacidosis, EAIR per 1,000 Subject-years (95% CL)” value [2]?
A: Its value is 37.64 (15.39, 59.88) per 1,000 Subject-years.

Q: And the “Positively Adjudicated Diabetic Ketoacidosis, Events [n (%) n]: events n” value [2]?
A: Its value is 11.

Q: What about the “Positively Adjudicated Diabetic Ketoacidosis, Events [n (%) n]: patients (%)” value [2] of the same compound?
A: Its value is 3.5%.

Q: What about the “Positively Adjudicated Diabetic Ketoacidosis, Events per Subject per Year” value [2] of the same compound?
A: The value was 0.038 Events per Subject per Year.

Q: What about the “Positively Adjudicated Diabetic Ketoacidosis, Relative Risk of EAIR (95% CL) Versus Placebo” value [2] of the same compound?
A: The value was 10.22 (1.74, 221.94).

Q: And the “Positively Adjudicated Severe Hypoglycemia, EAIR per 1,000 Subject-years (95% CL)” value [2]?
A: The value was 41.06 (17.83, 64.29) per 1,000 Subject-years.

Q: And the “Positively Adjudicated Severe Hypoglycemia, Events [n (%) n]: events n” value [2]?
A: Its value is 17.

Q: And the “Positively Adjudicated Severe Hypoglycemia, Events [n (%) n]: patients (%)” value [2]?
A: The value was 3.8%.

Q: What about the “Positively Adjudicated Severe Hypoglycemia, Events per Subject per Year” value [2] of the same compound?
A: The value was 0.058 Events per Subject per Year.

Q: What about the “Positively Adjudicated Severe Hypoglycemia, Relative Risk of EAIR (95% CL) Versus Placebo” value [2] of the same compound?
A: The value was 0.51 (0.24, 1.02).

Q: And the “Discontinuation of drug due to diarrhea” value (SOTA 200 mg)?
A: The value was 0.4%.

Q: What about the “Patients with Any TEAE, (%)” value (SOTA 200 mg) of the same compound?
A: Its value is “(75.0) %”.

Q: And the “Patients with DKA (positively adjudicated), (%)” value (SOTA 200 mg)?
A: Its value is “(2.9) %”.

Q: And the “Patients with Diarrhea, (%)” value (SOTA 200 mg)?
A: Its value is “(6.5) %”.

Q: And the “Patients with Genital mycotic infection, (%)” value (SOTA 200 mg)?
A: The value was “(9.2) %”.

Q: What about the “Patients with Severe hypoglycemia (positively adjudicated), (%)” value (SOTA 200 mg) of the same compound?
A: Its value is “(5.7) %”.

Q: And the “Discontinuation of drug due to diarrhea” value (SOTA 400 mg)?
A: The value was 0.8%.

Q: And the “Patients with Any TEAE, (%)” value (SOTA 400 mg)?
A: Its value is “(74.3) %”.

Q: What about the “Patients with DKA (positively adjudicated), (%)” value (SOTA 400 mg) of the same compound?
A: The value was “(3.8) %”.

Q: And the “Patients with Diarrhea, (%)” value (SOTA 400 mg)?
A: Its value is “(8.8) %”.

Q: What about the “Patients with Genital mycotic infection, (%)” value (SOTA 400 mg) of the same compound?
A: Its value is “(12.0) %”.

Q: What about the “Patients with Severe hypoglycemia (positively adjudicated), (%)” value (SOTA 400 mg) of the same compound?
A: The value was “(4.4) %”.

Q: What about the “risk of diarrhea compared to placebo” value (baseline BMI ≥27 kg/m^2, any doses) of the same compound?
A: Its value is “No increased risk”.

Q: And the “risk of DKA versus placebo” value (both BMI subgroups)?
A: Its value is “increased”.

Q: And the “risk of severe hypoglycemia” value (both doses, baseline BMI ≥27 kg/m^2 (only 400 mg in BMI <27 kg/m^2))?
A: The value was “numerically lower risk”.

Q: And the “event rates of documented hypoglycemia ≤55 mg/dL” value (both doses, both BMI subgroups)?
A: The value was “numerically lower”.
